From ChEMBL document CHEMBL1201862, “PubChem BioAssay data set” (2004)
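Cells were grown in 96-well plates and exposed to each compound for 48 hours at five concentrations; endpoints were interpolated linearly between bracketing concentrations, or set to the highest concentration if not reached. At the GI50, growth is halved.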 Active and inactive are the calls of the source. No stated cut-off is given here; in the data, active = GI50 up to about 1.1 µM and inactive = higher.

Columns and labels:
Assay in all cases: inhibition of tumour cell growth, NCI panel, 48 h
HT-29 = test system: HT-29
Hs-578T = test system: Hs-578T
IGROV-1 = test system: IGROV-1
K562 = test system: K562
KM12 = test system: KM12
MDA-MB-435 = test system: MDA-MB-435
MDA-N = test system: MDA-N
MOLT-4 = test system: MOLT-4
NCI-H226 = test system: NCI-H226
NCI-H460 = test system: NCI-H460
OVCAR-5 = test system: OVCAR-5
OVCAR-8 = test system: OVCAR-8
PC-3 = test system: PC-3
SF-295 = test system: SF-295
SK-MEL-28 = test system: SK-MEL-28
SK-MEL-2 = test system: SK-MEL-2
SNB-19 = test system: SNB-19
SR = test system: SR
SW-620 = test system: SW-620
UACC-257 = test system: UACC-257

Row | SMILES | GI50 (HT-29) | GI50 (Hs-578T) | GI50 (IGROV-1) | GI50 (K562) | GI50 (KM12) | GI50 (MDA-MB-435) | GI50 (MDA-N) | GI50 (MOLT-4) | GI50 (NCI-H226) | GI50 (NCI-H460) | GI50 (OVCAR-5) | GI50 (OVCAR-8) | GI50 (PC-3) | GI50 (SF-295) | GI50 (SK-MEL-28) | GI50 (SK-MEL-2) | GI50 (SNB-19) | GI50 (SR) | GI50 (SW-620) | GI50 (UACC-257)
1 | O=[N+]([O-])c1cc2ccc(N(CCO)CCO)nc2nc1N(CCO)CCO | > 100 µM (inactive) | > 100 µM (inactive) | > 100 µM (inactive) | > 100 µM (inactive) | > 100 µM (inactive) | > 100 µM (inactive) | > 100 µM (inactive) | > 100 µM (inactive) | > 100 µM (inactive) | > 100 µM (inactive) | > 100 µM (inactive) | > 100 µM (inactive) | > 100 µM (inactive) | > 100 µM (inactive) | > 100 µM (inactive) | > 100 µM (inactive) | > 100 µM (inactive) | 46.2 µM (inactive) | > 100 µM (inactive) | > 100 µM (inactive)
2 | CCOC(=O)CN1CC(C2=C(O)CN(CC(=O)OCC)C2=O)=CC1=O | > 100 µM (inactive) | > 100 µM (inactive) | > 100 µM (inactive) | > 100 µM (inactive) | > 100 µM (inactive) | > 100 µM (inactive) | > 100 µM (inactive) | > 100 µM (inactive) | > 100 µM (inactive) | > 100 µM (inactive) | > 100 µM (inactive) | > 100 µM (inactive) | > 100 µM (inactive) | > 100 µM (inactive) | > 100 µM (inactive) | > 100 µM (inactive) | > 100 µM (inactive) | > 100 µM (inactive) | > 100 µM (inactive) | > 100 µM (inactive)
3 | Clc1ccc(Cl)c(NNc2cc(Cl)ccc2Cl)c1 | > 10 µM (inactive) | > 10 µM (inactive) | 4.67 µM (inactive) | > 10 µM (inactive) | > 10 µM (inactive) | 8.09 µM (inactive) | 5.57 µM (inactive) | > 10 µM (inactive) | > 10 µM (inactive) | 3.66 µM (inactive) | > 10 µM (inactive) | 7.64 µM (inactive) | 3.66 µM (inactive) | > 10 µM (inactive) | 6.38 µM (inactive) | 2.83 µM (inactive) | 9.79 µM (inactive) | 8.81 µM (inactive) | > 10 µM (inactive) | > 10 µM (inactive)
4 | O=[N+]([O-])/C(C(Cl)=C(Cl)Cl)=C(/Cl)Sc1ccccc1 | 2.24 µM (inactive) | 3.15 µM (inactive) | 2.01 µM (inactive) | 0.59 µM (active) | 17.9 µM (inactive) | 1.86 µM (inactive) | 1.59 µM (inactive) | 0.361 µM (active) | 7.76 µM (inactive) | 17.1 µM (inactive) | 2 µM (inactive) | 0.255 µM (active) | 2.26 µM (inactive) | 20 µM (inactive) | 1.72 µM (inactive) | 13.3 µM (inactive) | 17.7 µM (inactive) | 0.378 µM (active) | 0.307 µM (active) | 1.25 µM (inactive)
5 | Cc1ccc(-n2cnc(C(=N)C#N)c2N)cc1 | > 100 µM (inactive) | > 100 µM (inactive) | > 100 µM (inactive) | > 100 µM (inactive) | > 100 µM (inactive) | > 100 µM (inactive) | > 100 µM (inactive) | > 100 µM (inactive) | > 100 µM (inactive) | > 100 µM (inactive) | > 100 µM (inactive) | > 100 µM (inactive) | > 100 µM (inactive) | > 100 µM (inactive) | > 100 µM (inactive) | > 100 µM (inactive) | > 100 µM (inactive) | > 100 µM (inactive) | > 100 µM (inactive) | > 100 µM (inactive)
6 | CCCCOP(=O)(OCCCC)/C(C#N)=C/c1ccc(C)o1 | 45.6 µM (inactive) | 57.4 µM (inactive) | > 100 µM (inactive) | 31.2 µM (inactive) | 42.4 µM (inactive) | 32.6 µM (inactive) | 36.9 µM (inactive) | 63.4 µM (inactive) | 28 µM (inactive) | 61.5 µM (inactive) | 86.3 µM (inactive) | 53.6 µM (inactive) | 23.9 µM (inactive) | 43.7 µM (inactive) | 60.8 µM (inactive) | 31 µM (inactive) | > 100 µM (inactive) | 51.6 µM (inactive) | 95.9 µM (inactive) | 27.4 µM (inactive)
7 | CCc1ccccc1NNc1cc(=O)[nH]c(=O)[nH]1 | 20.8 µM (inactive) | 28.6 µM (inactive) | 19.5 µM (inactive) | 27 µM (inactive) | 17.3 µM (inactive) | 19.1 µM (inactive) | 17.9 µM (inactive) | 26.7 µM (inactive) | 18.5 µM (inactive) | 22.9 µM (inactive) | 22 µM (inactive) | 23.4 µM (inactive) | 16.6 µM (inactive) | 17.9 µM (inactive) | 18.1 µM (inactive) | 16.6 µM (inactive) | 20.3 µM (inactive) | 30.5 µM (inactive) | 18.6 µM (inactive) | 18.5 µM (inactive)
